From US5428029A, “Vitamin D3 fluorinated analogs” (Hoffmann-La Roche Inc., priority 1993, dated 1995)
Where two headings read alike, the source gives them in different places.

Assays:
MCF-7 cells = test: Tetrazolium based MTT assay, inhibition of cell growth, MCF-7; conditions: Homo sapiens, MCF7, Exp. 2
Protocol: (§1) TETRAZOLIUM BASED MTT ASSAY
MCF-7 (breast adenocarcinoma) were grown in MEM (Eagle) supplemented with non-essential amino acids, 1 mM sodium pyruvate, […] bovine insulin and 10% FBS
(§2) Cells were grown in appropriate medium to late log phase (about 80% confluency). T47-D or MCF-7 cells were then trypsinized and seeded at 4,000 or 2,000 cells/well, respectively.
(§3) Tetrazolium Based MTT Assay:
(§4) At 24 hours post seeding, serial dilutions of ethanol-solubilized drugs are prepared in the same medium and added to triplicate wells at a final concentration of 1,000 to 0.1 nM and 0.1% ethanol. On days 3 to 7 post drug addition, 50 μl of a 5 mg/ml MTT solution (3-(4,5-dimethylthiazol-2-yl)-2,5-diphenyl tetrazolium bromide in phosphate-buffered saline) is added to each well and incubation is continued at 37° C. for 2.5 hours. The plates are then spun briefly by centrifugation at 800 xg for 5 minutes, medium is aspirated from wells, and 50 μl ETOH/well is added to dissolve the formazan formed during the incubation period with MTT. After a 15 minute shaking, the optical density is determined for each well in an automatic plate reader at 570 and 660 nm. Percent inhibition of cell growth is calculated by comparing optical densities of cells treated with test compounds to those of cells treated only with 0.1% ethanol. IC50 values are determined based on the Reed and Muench formula (Am. J. Hyg. 27:493-497 1938) and the results of two independent experiments are presented below: […]

T47-D cells = test: Tetrazolium based MTT assay, inhibition of cell growth, T47-D; conditions: Homo sapiens, T47D
Protocol: as §1
T47-D (breast ductal carcinoma) were grown in RPMI-1640 medium supplemented with 10 μg/ml bovine insulin and 10% fetal bovine serum (FBS).
as §2, §3, §4

[1] = tested on: human neonatal keratinocytes; test: Human Keratinocyte Antiproliferative Assay; format: cell-based; conditions: for IC50: read-out: average ED50 (Dose that would obtain 50% of the number of cells as compared to the control)
Protocol: Human Keratinocyte Antiproliferative Assay
Cultures were obtained from neonatal foreskin epithelial keratinocytes using standard procedures.
Human neonatal foreskins were collected by circumcision and placed into tubes containing Dulbecco's minimum essential Media (DMEM) with 10% serum. Upon arrival at the laboratory, they were mechanically trimmed of excess dermis, and treated with a solution of trypsin/ethylenediamine tetraacetic acid (EDTA) (0.05%/0.02%) at 4° C. overnight. The epidermis was stripped from the dermis, agitated in buffered saline to remove basal keratinocytes and the stratum corneum later removed. […] The cultures are incubated in humidified chambers with 5% CO2 at 37° C. with refeeding fresh media 2 to 3 times per week.
Antiproliferation Assay Protocol:
Approximately twenty-four hours after passage, the cells were refed with fresh KGM media supplemented to 1.5 mM CaCl2 that contains test compound or vehicle. Solutions of test compounds were prepared as follows: 1 milligram quantities were received in amber glass vials and stored at -20° C. Sufficient 100% ethanol was added directly to vials to obtain a millimolar solution that was subsequently aliquoted into small amber vials, overlayed with argon gas and stored at -20° C. Each stock solution was thawed once, used and discarded. Stock solutions were used within 4 to 6 weeks. Aliquots from the stock solution were diluted directly into medium and then serially diluted from micromolar to picomolar concentrations. […] Control wells are supplemented with vehicle alone at the highest concentration such as 0.1% ethanol. At the termination of the experiment prior to the cultures reaching confluency, the cells were enumerated by the following procedure. Dishes were washed with phosphate buffered saline, and then incubated with trypsin/EDTA solution for 30 minutes. Cells were suspended and an aliquot placed into isotonic buffered saline and counted on an electronic particle counter (Coulter Counter). The counter was periodically calibrated for the correct size of keratinocytes. Each well was counted in triplicate.

HL-60 tumor cell line = test: HL-60 Differentiation Assay; format: cell-based, human; conditions: 4 days; for EC50: Homo sapiens, 96 h, HL-60 differentiation, read-out: Approximate ED50
Protocol: HL-60 Differentiation Assay:
The HL-60 tumor cell line was originally derived from a patient with promyleocytic leukemia and purchased from American Type Culture Collection (ATCC CCL240). […] For experimentation, cells were seeded at 0.9×10^6 cells per 25 cm^2 flask in medium supplemented with 0.25 mM sodium ascorbate. […] All compounds were handled in the following manner. Stock solutions were made of 10^-3 M solutions in ethanol and stored in amber vials overlaid with argon at -20° C. Stock solutions were diluted into medium at concentrations indicated. All flasks were supplemented with vehicle at a concentration of 0.1% ethanol. Control flasks were supplemented with vehicle alone at a concentration of 0.1% ethanol. Flasks were incubated upright for 4 days in 5% CO 2 at 37° C. On day 4, a 1 ml aliquot of cells was removed from the flasks, centrifuged for about 10 minutes, the media removed and the cells resuspended in a 0.2 ml of solution of nitroblue tetrazolium/phorbol 12 myristate 13-acetate (NBT/TPA) in media prepared on the day of enumeration as follows. Nitroblue tetrazolium was dissolved in media at 1 mg/ml. To this solution was added TPA to a final concentration of 100 ng/ml. This solution was kept in a covered vial on ice. The cells were suspended and incubated at 37° C. for 30 min. prior to transferring to ice. An aliquot was removed and the cells are counted using a hemocytometer. Cells without pigmented granules are judged to be undifferentiated while those containing blue black formazan (indicating conversion of NBT) granules were scored as differentiated. Results are expressed as percent differentiated cells by calculating the ratio of the number of dark cells per total number of cells counted.

sebaceous cells = test: Inhibition of proliferation of sebaceous cells in vitro; format: cell-based; conditions: Homo sapiens, read-out: ED50 (amount of compound necessary to inhibit the proliferation of the sebaceous cells by 50%)
Protocol: Sebaceous cells were isolated from adult human sebaceous glands, derived from facial skin removed during cosmetic surgery. This method is described in an article by Doran et al. in J. Invest. Dermatol. 96:341-348 (1991).
The cells were cultured in Iscove's medium containing 10% fetal calf serum and 4 μg/ml dexamethasone on a layer of growth-arrested 3T3 mouse fibroblasts.
Cells were plated in medium without the test compound and then given the compound in fresh medium 24-48 hours after the initial plating. The cultures were given fresh medium, containing the test compound, every 48 hours. On the day of harvesting, the cultures were rinsed with 0.03% ethylenediamine tetraacetic acid (EDTA) in phosphate buffered saline (PBS), to remove only the 3T3 fibroblasts. The remaining sebocyte colonies were incubated in 0.05% trypsin/0.03% EDTA to create a single cell suspension of sebocytes. The cells were diluted, mixed vigorously to maintain a single cell suspension, and counted in a hemocytometer.
All compounds were handled in the following manner. Stock solutions were made up as 10^-2 M solutions in degassed 100% ethanol and stored at -20° C. in the dark. Solutions were never used after storage of more than a month. During experimental use the solutions, which had been aliquoted, were thawed once and used by diluting directly into complete medium to the appropriate concentration. […]

[2] = Homo sapiens, Keratinocyte, read-out: % of Control

| Structure (SMILES) | IC50 (MCF-7 cells) | IC50 (T47-D cells; Exp. 1) | IC50 (T47-D cells; Exp. 2) | Avg Cell No. ([1]; Dose 10 nM) | Avg Cell No. ([1]; Dose 100 nM) | Avg Cell No. ([1]; Dose 1000 nM) | Percent Positive Cells (HL-60 tumor cell line; Dose 0.1 nM) | Percent Positive Cells (HL-60 tumor cell line; Dose 0.3 nM) | Percent Positive Cells (HL-60 tumor cell line; Dose 1.0 nM) | Percent Positive Cells (HL-60 tumor cell line; Dose 10.0 nM) | Percent Positive Cells (HL-60 tumor cell line; Dose 100.0 nM) | EC50 (HL-60 tumor cell line) | further results |
| --- | --- | --- | --- | --- | --- | --- | --- | --- | --- | --- | --- | --- | --- |
| C=C1/C(=C\C=C2/CCC[C@]3(C)C([C@H](C)C/C=C/C(O)(C(F)(F)F)C(F)(F)F)=CC[C@@H]23)C[C@@H](O)C[C@@H]1F [1α-Fluoro-25-hydroxy-16,23E-diene-26,27-hexafluorocholecalciferol] | 0.38 nM | – | – | – | – | – | – | – | – | – | – | – | – |
| C[C@H](C/C=C/C(O)(C(F)(F)F)C(F)(F)F)C1=CC[C@H]2/C(=C/C=C3C[C@@H](O)C[C@H](O)C3)CCC[C@]12C [1,25-Dihydroxy-16,23E-diene-26,27-hexafluoro-19-norcholecalciferol] | 0.15 nM | 0.26 nM | 2.2 nM | – | – | – | – | – | – | – | – | – | – |
| C=C1/C(=C\C=C2/CCC[C@]3(C)C([C@H](C)CC#CC(O)(C(F)(F)F)C(F)(F)F)=CC[C@@H]23)C[C@@H](O)C[C@@H]1O [1,25-dihydroxy-16-ene-23 yne-26,27-hexafluoro-cholecalciferol, reference compound] | 0.42 nM | 0.63 nM | 0.95 nM | – | – | – | – | – | – | – | – | – | – |
| C=C1/C(=C\C=C2/CCC[C@]3(C)[C@@H]([C@H](C)CCCC(C)(C)O)CC[C@@H]23)C[C@@H](O)C[C@@H]1O [1,25-dihydroxy-cholecalciferol, 1,25-dihydroxycholecalciferol, reference compound] | – | – | – | 4.60E+05 | 3.12E+05 | 7.19E+05 | 2.0% | 5.0% | 3.5% | 26.0% | 84.0% | ~25 nM | Avg Cell No. ([1]; Dose 30 nM): 3.90E+05; Avg Cell No. ([1]; Dose 300 nM): 2.51E+05; activity at 0.01 µM [1, 2]: 94.3%; activity at 0.03 µM [1, 2]: 79.9%; activity at 0.1 µM [1, 2]: 64%; activity at 0.3 µM [1, 2]: 51.4%; activity at 1 µM [1, 2]: 14.7%; IC50 ([1]; Homo sapiens, Keratinocyte): 300 nM; IC50 (sebaceous cells): 50 nM |
| C=C1/C(=C\C=C2/CCC[C@]3(C)C([C@H](C)C/C=C/C(O)(C(F)(F)F)C(F)(F)F)=CC[C@@H]23)C[C@@H](O)C[C@@H]1O [1,25-Dihydroxy-16,23E-diene-26,27-hexafluorocholecalciferol] | 0.05 nM | < 0.1 nM | 0.9 nM | 2.29E+05 | 2.03E+05 | 3.04E+05 | 6.0% | 30.5% | 63.0% | 79.0% | 89.5% | ~0.6 nM | Avg Cell No. ([1]; Dose 0.0001 nM): 4.57E+05; Avg Cell No. ([1]; Dose 0.001 nM): 4.41E+05; Avg Cell No. ([1]; Dose 0.01 nM): 5.42E+05; Avg Cell No. ([1]; Dose 0.1 nM): 5.03E+05; Avg Cell No. ([1]; Dose 1.0 nM): 2.87E+05; activity at 100 fM ([1]; Homo sapiens, Keratinocyte, Dose 0.0001 nM, read-out: % of Control): 93.7%; activity at 1 pM ([1]; Homo sapiens, Keratinocyte, Dose 0.001 nM, read-out: % of Control): 90.3%; activity at 10 pM ([1]; Homo sapiens, Keratinocyte, Dose 0.01 nM, read-out: % of Control): 111%; activity at 0.0001 µM ([1]; Homo sapiens, Keratinocyte, Dose 0.1 nM, read-out: % of Control): 103%; activity at 0.001 µM ([1]; Homo sapiens, Keratinocyte, Dose 1.0 nM, read-out: % of Control): 58.7%; activity at 0.01 µM ([1]; Homo sapiens, Keratinocyte, Dose 10 nM, read-out: % of Control): 47%; activity at 0.1 µM ([1]; Homo sapiens, Keratinocyte, Dose 100 nM, read-out: % of Control): 41.6%; activity at 1 µM ([1]; Homo sapiens, Keratinocyte, Dose 1000 nM, read-out: % of Control): 6.23%; IC50 ([1]; Keratinocyte, human keratinocytes): 2 nM; IC50 (sebaceous cells; compared to vehicle treated control culture): < 1 nM |
